Literature values as cited in patent US8648072B2, “Cannabinoid receptor antagonists/inverse agonists useful for treating metabolic disorders, including obesity and diabetes” (Jenrin Discovery, Inc., priority 2009, dated 2014).

Tested on: patients with type 2 diabetes
Details: after six months of treatment; baseline value of 7.9; placebo group 0.3%

Cc1c(C(=O)NN2CCCCC2)nn(-c2ccc(Cl)cc2Cl)c1-c1ccc(Cl)cc1 [rimonabant]
HbA1c levels lowered: 0.8%
